As a reminder, the IC50 is the point on the concentration scale where inhibition reaches its midpoint.

The values below come from patent US6346373B1, “Whole cell assay for cathepsin K activity” (Merck Frosst Canada & Co.,, priority 1999, dated 2002).

“Also recorded” adds a separate entry of the source.

In series [1] the target is T1, intracellular cathepsin K in hCat K cells (Homo sapiens, UniProt P43235).
T1 construct: expressed in transfected cells
T1 sequence (P43235 115-329): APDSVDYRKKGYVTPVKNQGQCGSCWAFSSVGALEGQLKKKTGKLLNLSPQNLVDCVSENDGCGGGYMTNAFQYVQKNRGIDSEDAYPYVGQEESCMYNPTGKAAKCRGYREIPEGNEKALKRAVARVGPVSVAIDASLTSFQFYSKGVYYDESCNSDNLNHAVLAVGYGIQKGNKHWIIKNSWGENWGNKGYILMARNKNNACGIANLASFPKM
Nature of the series: Flow cytometry (FACS) analysis of hCat K CHO cells with [Z-Leu-Arg]2-rhodamine. It counts as cell-based. The conditions noted are these: 5 μM Z-Leu-Arg-Rho, cystatin and SBTI present (FIG. 8C). The method, then:
FIGS. 8A-8C show the results of the flow cytometry analysis of mock and hCat K expressing CHO cells. Pelleted cells are resuspended in Ca^2+ and Mg^2+ free PBS containing 20 μg/ml cystatin and 100 μg/ml SBTI. After a preincubation of 15 min at […], the substrate, 5 μM Z-Leu-Arg-rhodamine is added. Flow cytometry analysis is performed after a 15 min incubation at 37° C. with the substrate.
Stable mock or hCat K cell lines are trypsinized and resuspended at a density of 1 million cells/ml in Ca^2+ and Mg^2+ free PBS, 20 μg/ml cystatin and 100 μg/ml soybean trypsin inhibitor. Cells are preincubated for 15 min at 37° C. in the presence of vehicle or an inhibitor followed by the addition of the substrate, [Z-Leu-Arg]2-rhodamine (5 μM). Flow cytometry analysis is performed using a FACSCalibur system (Becton Dickinson, CA, USA) equipped with a CellQuest software. Voltage and fluorescence compensation adjustments are performed before each experiment using CaliBRITE beads (Becton Dickinson, CA, USA) and the FACSComp software (Becton Dickinson, CA, USA). A minimum of 10,000 events is collected for each sample. Cells are gated to exclude cell debris and abnormally large or aggregated cells.

The subject of series [2] is extracellular protease activity of whole hCat K cells. The series is described as follows: Effect of cell-impermeable protease inhibitors on Z-Leu-Arg-Rhodamine hydrolysis by whole hCat K cells (FIG. 5). Format: cell-based. The settings on record: cystatin 20 μg/ml, EDTA 1 mM, SBTI 100 μg/ml, pepstatin A 0.7 μg/ml; 5 μM Z-Leu-Arg-Rhodamine (FIG. 5). The method, then:
Cells are seeded in sterile 96-wells cell culture plates, grown for 24 h and then washed twice with PBS. Into each well, HBSS pH 7.4 containing 15 mM Hepes is added. The rate of substrate hydrolysis is determined in the presence of the designated protease inhibitors. Cells are preincubated with an inhibitor for 15 min, then the reaction initiated with the addition of the substrate, 5 μM Z-Leu-Arg-Rhodamine. […] The reported enzymatic activities constitute the initial rate of substrate hydrolysis and each data point is an average of duplicates.
To determine the effect of different inhibitors on cathepsin K activity, mock and hCat K whole cells are preincubated with 1 μl of vehicle (control) or an inhibitor for 15 min at room temperature followed by the addition of the substrate. All inhibitors are prepared as stock solutions in DMSO (dimethylsulfoxide) and assays performed with a final DMSO concentration of 1.5%.
Mock and hCat K cells are plated into 96 well tissue culture plates as described in materials and methods and the activity is determined using the Z-Leu-Arg-rhodamine substrate. […]

Series [3] is described as follows: Cell permeability tested in CACO-2 cells. The settings on record: unpublished results. It counts as in vitro ADME.
In series [4] the target is T2, recombinant cathepsin K expressed by the CHO tranfectants (hCat K extract) (Homo sapiens, UniProt P43235).
T2 construct: expressed in transfected cells
T2 sequence (P43235 115-329): T1 sequence (P43235 115-329)
The series is described as follows: Enzyme assay in hCat K CHO cell extract supernatant, hydrolysis of Z-Leu-Arg-rhodamine. It counts as biochemical. The settings on record: 5 μg/ml total cell protein in buffer A, 15 min preincubation, 5 μM substrate (FIG. 4). The method, then:
(§1) The rate of substrate hydrolysis is determined in supernatants from extracts of mock and cathepsin K expressing cells (5 μg/ml of total cell protein in buffer A) and a suspension of pure cathepsin K enzyme (3 nM resuspended in buffer A), in the presence of different concentrations of cystatin. Suspensions are preincubated with cystatin for 15 min, then the reaction is initiated with the addition of the substrate (5 μM Z-Leu-Arg-Rhodamine). Each data point is an average of duplicates and is reported as a percentage of inhibition of the control reaction.
Cultured tranfectants are pelleted, resuspended in PBS and sonicated for 3×10 s using a Kontes Ultrasonic Disrupter. […] Protein concentrations are determined on all the supernatants using the Pierce Coomassie Protein Reagent (Pierce, Ill. USA) as described in the manufacturer's instruction.
(§2) The enzymatic activity of purified cathepsin K (3 nM) and transfectants' supernatants (5 μg/ml of protein) is determined by following the rate of hydrolysis of different peptide substrates conjugated to either AMC or rhodamine.
Assays are performed at room temperature in 200 μl of buffer A [50 mM MES (2-(N-morpholino)ethanesulfonic acid) buffer, pH 5.5, containing 2.5 mM EDTA, 2.5 mM dithiothreitol, 10% DMSO]. […] Cathepsin K activity measurements are calculated as initial rates over the first 5 min of the reaction. […]

In series [5] the target is T3, purified cathepsin K (Homo sapiens, UniProt P43235).
T3 construct: Standards (10 ng) of human mature cathepsin K (pure Cat k mature)
T3 sequence (P43235 115-329): T1 sequence (P43235 115-329)
The series is described as follows: Pure cathepsin K enzyme assay, hydrolysis of Z-Leu-Arg-Rhodamine in buffer A. It counts as biochemical. The conditions noted are these: 15 min preincubation; for IC50: pure cathepsin K in buffer A, 5 μM Z-Leu-Arg-Rhodamine, read-out: IC50 Pure Cat K. How it is done:
as §1, §2
Assays are performed at room temperature in 200 μl of buffer A [50 mM MES (2-(N-morpholino)ethanesulfonic acid) buffer, pH 5.5, containing 2.5 mM EDTA, 2.5 mM dithiothreitol, 10% DMSO]. Substrate hydrolysis is monitored over a period of 10 min at room temperature in a Cytofluor 4000 fluorescent plate reader (Perseptive Biosystems, MA, USA). Cathepsin K activity measurements are calculated as initial rates over the first 5 min of the reaction.
(§3) Stable mock or hCat K expressing cells are resuspended in HBSS, pH 7.4 supplemented with 15 mM Hepes, 20 μg/ml cystatin and 100 μg/ml SBTI. Pure cathepsin K enzyme is resuspended in buffer A. Enzyme suspensions are preincubated with the designated inhibitor for 15 min before initiating the reaction with 5 μM of the substrate Z-Leu-Arg-Rhodamine.

The target of series [6] is recombinant human cathepsin K expressed in CHO cells stably transfected with pcDNA3.1/hCat K (human) (UniProt P43235). Nature of the series: cell-based or functional assay.
For series [7], the target named is human mature cathepsin K (purified enzyme) (human) (UniProt P43235). Nature of the series: cell-based or functional assay.
Series [8] concerns the target T4, intracellular cathepsin K in hCat K expressing CHO cells (Homo sapiens, UniProt P43235).
T4 construct: expressed in transfected cells
T4 sequence (P43235 115-329): T1 sequence (P43235 115-329)
Nature of the series: Whole cell assay for cathepsin K in hCat K expressing CHO cells in presence of cystatin and SBTI. The conditions noted are these: hCat K expressing cells in HBSS pH 7.4, 15 mM Hepes, 20 μg/ml cystatin, 100 μg/ml SBTI; 15 min preincubation, 5 μM Z-Leu-Arg-Rhodamine. It counts as cell-based. The method, then: Unless otherwise indicated, cathepsin K activity in intact cells is conducted by challenging the cells with 5 μM of the substrate [Z-Leu-Arg]2-rhodamine in the presence of cystatin and SBTI. Using sterile 96-wells culture plates (Nunc, DK, Denmark), 50,000 mock or Cat K expressing stable cell lines are dispensed into each well and incubated for 24 h. Using the Skanwasher 300 plate washer (Skatron, VA, USA) the cells are washed twice with PBS containing Ca^2+ and Mg^2+. Then, pre-incubated for 15 min at room temperature in 200 μl HBSS (Hank's buffered saline solution), pH 7.4, supplemented with 15 mM Hepes, 20 μg/ml cystatin (Calbiochem, CA, USA) and 100 μg/ml soybean trypsin inhibitor (Sigma, ON, Canada). The pre-incubated cells are then challenged with the addition of 2 μl of [Z-Leu-Arg]2-rhodamine (500 μM stock solution in DMSO to a final 5 μM concentration). Substrate hydrolysis is monitored at room temperature in a Cytofluor 4000 fluorescent plate reader (Perseptive Biosystems, MA, USA).
as §3

Series [9] has as its system bone resorption. The settings on record: Delaisse et al., 1987; cited from earlier work.

Turning to `CCOC(=O)[C@H]1O[C@@H]1C(=O)N[C@@H](CC(C)C)C(=O)NCCC(C)C` [Inhibitor E64d], the “Effect on increase in fluorescence in hCat K cells” value in [1] was “inhibited; also recorded: repressed”.

Consider cystatin [listing 1 of 2 here], for which the “Effect on protease activity in whole hCat K cells” value in series [2] is “decrease in protease activity; also recorded: effective inhibitor of extracellular cathepsin K activity”. Besides, in [3], the Cell permeability result was “does not permeate into cells”. Also, the “IC50 on hydrolysis of Z-Leu-Arg-rhodamine by hCat K extract” value in series [4] stood at 0.09 µg/mL. Further, the “IC50 on hydrolysis of Z-Leu-Arg-rhodamine by purified cathepsin K” value in series [5] (3 nM pure enzyme in buffer A, 5 μM substrate (FIG. 4)) amounted to 0.2 µg/mL.

Consider cystatin [listing 2 of 2 here], for which the figures for the IC50, inhibition of the rate of hydrolysis of Z-Leu-Arg-rhodamine in [6] and in series [7] were 0.09 µg/mL and 0.2 µg/mL, respectively.

`CC(C)CCNC(=O)[C@H](CC(C)C)NC(=O)[C@H]1O[C@@H]1C(=O)O` [Inhibitor E64c]: the IC50 is 307 nM in series [8] and 41 nM in series [5].

`CC(C)C[C@H](NC(=O)C1OC1C(=O)O)C(=O)NCCCCNC(=N)N` (stereo partly drawn) [Inhibitor E64, trans-epoxysuccinyl-L-leucylamide-(4-guanidino) butane]: the IC50 in series [8] was 576 nM; in series [5], 30 nM. In series [9], the “Inhibition of bone resorption” value was “effective in inhibiting bone resorption”.
